From US20140349941A1, “AROMATIC-CATIONIC PEPTIDES AND USES OF SAME” (Cornell University, priority 2011, published 2014)
“Also recorded” adds a separate entry of the source.

Key:
[1] = Animal models of ischemia-reperfusion injury, neurodegenerative diseases and metabolic syndrome; assay type: in vivo; settings: neurodegenerative diseases, metabolic syndrome
[2] = Antioxidant ability: neutralizing reactive species, lipid peroxidation; assay type: biochemical
[3] = target: heme environment of cytochrome c (with CL) (Homo sapiens, UniProt P99999); experiment: Soret CD spectrum of cyt C in the presence of CL; assay type: binding; settings: cyt C 10 μM; CL 30 μg/ml; peptide 10 μM; 20 mM HEPES pH 7.5, 25° C.; FIG. 24
Method: Circular dichroism (CD) was carried out to examine the effects of the peptides on protecting the heme environment of cyt C from the acyl chain of CL. For heme proteins, the Soret CD spectrum is strictly correlated with the heme pocket conformation. In particular, the negative 416-420 nm Cotton effect is considered diagnostic of Fe(III)-Met80 coordination in native cyt C (Santucci and Ascoli, 1997). […] CD spectra were obtained using AVIV CD Spectrometer Model 410.
Changes in the Soret CD spectrum of cyt C (10 μM) were recorded in the absence (dotted line) and presence (dashed line) of 30 μg/ml CL, plus addition of different peptides (10 μM) (solid line) (FIG. 24). CD measurements were carried out using 20 mM HEPES, pH 7.5, at 25° C. and expressed as molar ellipticity (θ) (m Deg).

[4] = Fluorescence spectroscopy of peptide interaction with cardiolipin; assay type: binding; settings: peptide 1 μM, CL 5-50 μg/ml
Description: The peptides Dmt-D-Arg-(atn)Dap-Lys-NH2 (SS-19) and Dmt-D-Arg-Phe-Lys-Ald-NH2 (SS-37)cationic peptides carry net positive charge at neutral pH. They are expected to associate with anionic phospholipid cardiolipin based on electrostatic interaction. The interaction of small peptides with lipid membranes can been studied using fluorescence spectroscopy (Surewicz and Epand, 1984). […] Polarity-sensitive fluorescent probes were incorporated into the peptides and fluorescence spectroscopy was used to determine if SS-19, SS-37 and SS-36 interact with CL.
The peptide Dmt-D-Arg-Phe-(atn)Dap-NH2 (SS-19) contains anthraniloyl incorporated into diaminopropionic acid. Anthraniloyl derivatives fluoresce in the 410-420 nm range when excited at 320-330 nm (Hiratsuka T, 1983). The quantum yield of anthraniloyl derivatives is strongly dependent on the local environment, and can increase 5-fold going from water to 80% ethanol, together with a blue shift in the emission maxima (λ max) of <10 nm (Hiratsuka T, 1983). Fluorescence emission spectrum of SS-19 (1 μM) alone, and in the presence of increasing concentrations of CL (5 to 50 μg/ml), was monitored following excitation at 320 nm using Hitachi F-4500 fluorescence spectrophotometer.
The peptide Dmt-D-Arg-Phe-Lys-Ald-NH2 (SS-37) contains an additional amino acid, aladan (Ald), which has been reported to be particularly sensitive to the polarity of its environment and it has been used to probe the electrostatic character of proteins (Cohen et al., 2002). When excited at 350 nm, λmax shifts from 542 nm in water to 409 nm in heptane, accompanied by a significant increase in quantal yield (Cohen et al., 2001). Fluorescence emission spectrum of SS-37 (1 μM) alone, and in the presence of increasing concentrations of CL, was monitored following excitation at 350 nm. Addition of CL (5 to 50 μg/ml) led to a 3-fold increase in quantal yield of SS-37 as well as a clear blue shift in λmax, from 525 nm without CL to 500 nm with 50 μg/ml CL (FIG. 21B).
The peptide Dmt-D-Arg-Ald-Lys-NH2 (SS-36) contains Ald in place Phe^3. Fluorescence emission spectrum of SS-36 (1 μM) alone, and in the presence of increasing concentrations of CL, was monitored following excitation at 350 nm. SS-36 was the most sensitive to the addition of CL, with dramatic increase in quantal yield and blue shift observed with much lower added amounts of CL (1.25 to 5 μg/ml). The λmax shifted from 525 nm without CL to 500 nm with as little as 1.25 μg/ml CL, and quantal yield increased by more than 100-fold with the addition of 5 μg/ml of CL (FIG. 21C).

cytochrome c = experiment: Fluorescence quenching of peptide by cytochrome c; assay type: binding
Method: (§1) Maximal fluorescence emission of SS-19 was monitored at 420 nm following excitation at 320 nm using Hitachi F-4500 fluorescence spectrophotometer.
(§2) The quenching by cytochrome c was not displaced by sequential additions of bovine serum albumin (FIG. 22C, A+arrows) (500 μg/ml).
Fluorescence emission of SS-19 (10 μM) was monitored in real time (Ex/Em=320 nm/420 nm) using Hitachi F-4500 fluorescence spectrophotometer.

cytochrome c-CL complex [5] = target: T1, cytochrome c-CL complex (Homo sapiens, UniProt P99999); experiment: Fluorescence spectroscopy of peptide with cytochrome c in the presence of CL; assay type: binding; settings: peptide 10 μM, CL 50 μg/ml
Method: Fluorescence emission of SS-19 (10 μM) was monitored in real time (Ex/Em=320 nm/420 nm) using Hitachi F-4500 fluorescence spectrophotometer. […] CL may potentiate the interaction between SS-19 and cytochrome c by serving as an anionic platform for the two cationic molecules.
The quenching by cytochrome c was not displaced by sequential additions of bovine serum albumin (500 μg/ml) (FIG. 23C, A+arrows).
SS-36 also contains the polarity-sensitive fluorescent amino acid aladan.

[6] = system: isolated rat renal kidney mitochondria; experiment: Fluorescence quenching of peptide by mitochondria or mitoplasts; assay type: binding
Method: as §1, §2

cytochrome c-CL complex [7] = target: T1, cytochrome c-CL complex; experiment: Cytochrome c/CL peroxidase activity (amplex red); assay type: biochemical; settings: figure legend FIG. 29A-C; comparison at a fixed concentration of 10 μM (FIG. 29C)
Description: The six coordination of the heme in cytochrome c prevents direct interaction of H2O2 with the catalytic metal site, and native cytochrome c in solution is a poor peroxidase. Upon interaction with CL, cytochrome c undergoes a structural change with rupture of the Fe-Met80 coordination. […] The mechanism of action of cytochrome c peroxidase is similar to that of other peroxidases, such as horse radish peroxidase (HRP). Thus it is possible to use the amplex red-HRP reaction to investigate cytochrome c peroxidase activity. In the presence of peroxidase, amplex red (AR) reacts with H2O2 to form the red-fluorescent oxidation product, resorufin (Ex/Em=571/585).
Cytochrome c (2 μM) was mixed with CL (25 μg/ml) and 10 μM H2O2 in 20 mM HEPES, pH 7.4. Amplex red (50 μM) was then added and fluorescence emission monitored in real time using Hitachi F4500 fluorescence spectrophotometer. Addition of amplex red elicited rapid increase in fluorescence signal due to resorufin formation, providing direct evidence for peroxidase activity of cytochrome c/CL complex (FIG. 29A).

T1 sequence (P99999 2-105 limits assumed, species assumed, one chain of several): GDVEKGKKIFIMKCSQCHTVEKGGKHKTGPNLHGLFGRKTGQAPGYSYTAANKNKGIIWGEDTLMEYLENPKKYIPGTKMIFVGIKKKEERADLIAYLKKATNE
heme environment of cytochrome c (with CL), sequence (P99999 2-105 limits assumed, species assumed): as the sequence (P99999 2-105 limits assumed, species assumed, one chain of several) above

Substance | efficacy in animal models [1] | lipid peroxidation [2] | neutralizing reactive species [2] | disappearance of the negative Cotton effect caused by CL (heme environment of cytochrome c) [3] | increase in quantal yield of peptide fluorescence [4] [fold] | shift in λmax on addition of CL ([4]; excitation 320 nm) | displacement of cytochrome c quenching by bovine serum albumin (cytochrome c; BSA 500 μg/ml, FIG. 22C) | dependence of interaction on amount of cytochrome c (cytochrome c; FIG. 22D) | peptide fluorescence on addition of cytochrome c (cytochrome c; peptide 10 μM, 2 μM cytochrome c, no CL) | peptide fluorescence on addition of cytochrome c in the presence of CL (cytochrome c-CL complex [5]; 2 μM cytochrome c) | peptide fluorescence on addition of CL (cytochrome c-CL complex [5]; FIG. 23B) | quenching of peptide fluorescence by cytochrome c-depleted mitoplasts ([6]; mitoplasts 0.4 mg, FIG. 22B) | peptide fluorescence on addition of mitochondria ([6]; peptide 10 μM, sequential addition of 0.2 mg mitochondria, FIG. 22A) | peroxidase activity in cytochrome c/CL complex (cytochrome c-CL complex [7])
D-Arg-2′6′-Dmt-Tyr-Lys-Phe-NH2 | remarkable efficacy | inhibit lipid peroxidation | can neutralize H2O2, hydroxyl radical, and peroxynitrite | – | – | – | – | – | – | – | – | – | – | –
Dmt-D-Arg-Phe-(atn)Dap-NH2 [SS-19] | – | – | – | Protect the Heme Environment of Cytochrome C from the Acyl Chain of CL | 2 | no significant shift in λmax | not displaced | linearly dependent on the amount of cytochrome c added | similarly quenched; also recorded: immediate quenching of the fluorescence signal | larger extent of quenching of SS-19 fluorescence | increase in SS-19 fluorescence | significantly reduced | quenched | preventing peroxidase activity in cytochrome c/CL complex
